Measured values as given in patent US10842892B2, “Methods and apparatus for synthesizing imaging agents, and intermediates thereof” (Lantheus Medical Imaging, Inc., priority 2010, dated 2020).
Values joined by “and” are separate entries in the source; they are usually repeats but may differ in a detail not shown here. Equal entries are not always repeated.

Assays:
normal rats and dogs = conditions: cited from earlier work
healthy adults = test: whole-organ biodistribution and residence times by whole-body PET; type: in vivo, human; conditions: for Mean Percent Administered Dose, Brain / Mean Percent Administered Dose, GI Stomach Wall / Mean Percent Administered Dose, Heart Wall / Mean Percent Administered Dose, Kidneys / Mean Percent Administered Dose, Liver / Mean Percent Administered Dose, Marrow (lumbar) / Mean Percent Administered Dose, Salivary / Mean Percent Administered Dose, Spleen / Mean Percent Administered Dose, Thyroid / Mean Percent Administered Dose, Urinary Bladder / Mean Percent Administered Dose, Whole Body: N = 12, decay corrected
Experimental: Whole-body PET imaging from head to mid thigh was performed at protocol-specified time-windows.
The attenuation corrected transverse image data slice planes were combined into a single three-dimensional image matrix for each subject and each time point using custom software. These images were then divided into 6 image sets (“anterior”, “posterior”, “salivary”, “thyroid”, “source”, and “full”) of combined coronal plane image data for each subject at each time point, grouping organs with similar anterior to posterior depths. This was done to optimize the ROI creation, and minimize background contribution to the organs contained in each combined coronal plane image. The “anterior” images contained stomach wall, heart wall, and urinary bladder. The “posterior” images contained kidneys, lumbar spine, and spleen (when visible). The “salivary” images contained the salivary glands (parotid and submandibular). The “thyroid” images contained the thyroid. The “full” images combined all of the coronal image planes that contained subject image data and was used for quantification of the brain and liver. The “source” images contained the calibration source.
Absolute radioactivity was determined by normalizing ROI sums by a calibration factor derived from the calibration source. Region counts were also adjusted for activity containing underlying and overlying tissue that was not part of the organ or tissue being quantified by utilization of background regions of interest. Total body region counts were also corrected for off body background counts. Appropriate normalization of region sizes for organ and adjacent regions were made. Unobstructed regions of organs with significant overlap from other activity containing organs were also employed where necessary. In order to estimate the activity in the lower legs (which were not imaged), a region of interest on the upper thigh was utilized. Activities were also normalized where necessary to account for 100% of the injected activity, and to insure conservative (slight over-estimates) determination of absorbed dose.
Kinetic data for brain, heart wall, kidneys, liver, red marrow (lumbar spine regions were utilized), salivary glands, spleen, stomach wall, thyroid, and urinary bladder for the subjects in the study were determined using image quantification methodology. Absolute activity was converted to fractional dose by dividing by the total activity administered. Organ and tissue data were fit using non-linear least-squares regression with sums of exponentials of the form shown in Equation 1, where f and λ are the model parameters that are determined in the fitting process, Fij(t) is the fraction of the total injected activity, t is the time post injection, i is the i^th ROI, j is the j^th subject, and k is the k^th exponential term. Between one and four exponential terms were employed, as appropriate.
The regression was performed using custom software that determines initial parameter values based on the temporal variation of the kinetic data, and the use of pre-tabulated estimates for various time activity scenarios as selected by the user. […] Remainder of Body residence times were determined by subtraction of appropriate organ residence times from whole body residence times. Urinary bladder residence times were determined using the parameters determined by fitting the whole body activity data with a urinary bladder model as implemented in the OLINDA/EXM software with 3.5 hour bladder voiding interval. Red marrow residence time was determined based on a region of interest drawn on a portion of the lumbar spine. The lumbar spine was assumed to contain 16.1% (International Commission on Radiological Protection (ICRP) Publication 23, Report of the Task Group on Reference Man. Pergamon Press. 1975, page 125) of the total red marrow.

[1] = N = 12, Void Interval = 3.5 hours
[2] = whole body coronal images, representative subject

CC(C)(C)n1ncc(OCc2ccc(COCC[18F])cc2)c(Cl)c1=O [imaging agent 1, 2-t-butyl-4-chloro-5-[4-(2-(^18F)fluoroethoxymethyl)-benzyloxy]-2H-pyridazin-3-1]
concentration (dose) inducing transit clinical signs (rapid and labored breathing, decreased activity, hunched posture, urination) (normal rats and dogs): ≥ 200 µg/kg | dose at which these clinical signs were not observed (normal rats and dogs): ≤ 100 µg/kg | Mean Percent Administered Dose, Brain (healthy adults; 0.17 hr post-dose): 8.3% | Mean Percent Administered Dose, GI Stomach Wall (healthy adults; 0.17 hr post-dose): 2.5% | Mean Percent Administered Dose, Heart Wall (healthy adults; 0.17 hr post-dose): 3.1% | Mean Percent Administered Dose, Kidneys (healthy adults; 0.17 hr post-dose): 9.4% | Mean Percent Administered Dose, Liver (healthy adults; 0.17 hr post-dose): 19.1% | Mean Percent Administered Dose, Marrow (lumbar) (healthy adults; 0.17 hr post-dose): 0.3% | Mean Percent Administered Dose, Salivary (healthy adults; 0.17 hr post-dose): 0.6% | Mean Percent Administered Dose, Spleen (healthy adults; 0.17 hr post-dose): 0.9% | Mean Percent Administered Dose, Thyroid (healthy adults; 0.17 hr post-dose): 0.1% | Mean Percent Administered Dose, Urinary Bladder (healthy adults; 0.17 hr post-dose): 0.3% | Mean Percent Administered Dose, Whole Body (healthy adults; 0.17 hr post-dose): 100.0% | Mean Percent Administered Dose, Brain (healthy adults; 0.50 hr post-dose): 7.9% | Mean Percent Administered Dose, GI Stomach Wall (healthy adults; 0.50 hr post-dose): 2.4% | Mean Percent Administered Dose, Heart Wall (healthy adults; 0.50 hr post-dose): 3.2% | Mean Percent Administered Dose, Kidneys (healthy adults; 0.50 hr post-dose): 6.5% | Mean Percent Administered Dose, Liver (healthy adults; 0.50 hr post-dose): 18.0% | Mean Percent Administered Dose, Marrow (lumbar) (healthy adults; 0.50 hr post-dose): 0.3% | Mean Percent Administered Dose, Salivary (healthy adults; 0.50 hr post-dose): 0.7% | Mean Percent Administered Dose, Spleen (healthy adults; 0.50 hr post-dose): 0.6% | Mean Percent Administered Dose, Thyroid (healthy adults; 0.50 hr post-dose): 0.1% | Mean Percent Administered Dose, Urinary Bladder (healthy adults; 0.50 hr post-dose): 0.2% | Mean Percent Administered Dose, Whole Body (healthy adults; 0.50 hr post-dose): 99.8% | Mean Percent Administered Dose, Brain (healthy adults; 0.83 hr post-dose): 7.3% | Mean Percent Administered Dose, GI Stomach Wall (healthy adults; 0.83 hr post-dose): 2.2% | Mean Percent Administered Dose, Heart Wall (healthy adults; 0.83 hr post-dose): 3.4% | Mean Percent Administered Dose, Kidneys (healthy adults; 0.83 hr post-dose): 4.9% | Mean Percent Administered Dose, Liver (healthy adults; 0.83 hr post-dose): 16.4% | Mean Percent Administered Dose, Marrow (lumbar) (healthy adults; 0.83 hr post-dose): 0.3% | Mean Percent Administered Dose, Salivary (healthy adults; 0.83 hr post-dose): 0.6% | Mean Percent Administered Dose, Spleen (healthy adults; 0.83 hr post-dose): 0.4% | Mean Percent Administered Dose, Thyroid (healthy adults; 0.83 hr post-dose): 0.1% | Mean Percent Administered Dose, Urinary Bladder (healthy adults; 0.83 hr post-dose): 0.3% | Mean Percent Administered Dose, Whole Body (healthy adults; 0.83 hr post-dose): 99.7% | Mean Percent Administered Dose, Brain (healthy adults; 2.0 hr post-dose): 4.7% | Mean Percent Administered Dose, GI Stomach Wall (healthy adults; 2.0 hr post-dose): 0.7% | Mean Percent Administered Dose, Heart Wall (healthy adults; 2.0 hr post-dose): 2.4% | Mean Percent Administered Dose, Kidneys (healthy adults; 2.0 hr post-dose): 1.6% | Mean Percent Administered Dose, Liver (healthy adults; 2.0 hr post-dose): 7.5% | Mean Percent Administered Dose, Salivary (healthy adults; 2.0 hr post-dose): 0.5% | Mean Percent Administered Dose, Spleen (healthy adults; 2.0 hr post-dose): 0.3% | Mean Percent Administered Dose, Thyroid (healthy adults; 2.0 hr post-dose): 0.1% | Mean Percent Administered Dose, Urinary Bladder (healthy adults; 2.0 hr post-dose): 0.9% | Mean Percent Administered Dose, Whole Body (healthy adults; 2.0 hr post-dose): 98.2% | Mean Percent Administered Dose, Brain (healthy adults; 2.5 hr post-dose): 4.1% | Mean Percent Administered Dose, GI Stomach Wall (healthy adults; 2.5 hr post-dose): 0.7% | Mean Percent Administered Dose, Heart Wall (healthy adults; 2.5 hr post-dose): 2.5% | Mean Percent Administered Dose, Kidneys (healthy adults; 2.5 hr post-dose): 1.6% | Mean Percent Administered Dose, Liver (healthy adults; 2.5 hr post-dose): 7.0% | Mean Percent Administered Dose, Salivary (healthy adults; 2.5 hr post-dose): 0.5% | Mean Percent Administered Dose, Spleen (healthy adults; 2.5 hr post-dose): 0.3% | Mean Percent Administered Dose, Thyroid (healthy adults; 2.5 hr post-dose): 0.1% | Mean Percent Administered Dose, Urinary Bladder (healthy adults; 2.5 hr post-dose): 1.1% | Mean Percent Administered Dose, Whole Body (healthy adults; 2.5 hr post-dose): 98.1% | Mean Percent Administered Dose, Brain (healthy adults; 3.83 hr post-dose): 3.2% | Mean Percent Administered Dose, GI Stomach Wall (healthy adults; 3.83 hr post-dose): 0.6% | Mean Percent Administered Dose, Heart Wall (healthy adults; 3.83 hr post-dose): 2.1% | Mean Percent Administered Dose, Kidneys (healthy adults; 3.83 hr post-dose): 1.2% | Mean Percent Administered Dose, Liver (healthy adults; 3.83 hr post-dose): 4.5% | Mean Percent Administered Dose, Salivary (healthy adults; 3.83 hr post-dose): 0.4% | Mean Percent Administered Dose, Spleen (healthy adults; 3.83 hr post-dose): 0.3% | Mean Percent Administered Dose, Thyroid (healthy adults; 3.83 hr post-dose): 0.1% | Mean Percent Administered Dose, Urinary Bladder (healthy adults; 3.83 hr post-dose): 1.4% | Mean Percent Administered Dose, Whole Body (healthy adults; 3.83 hr post-dose): 96.8% | Mean Percent Administered Dose, Brain (healthy adults; 4.5 hr post-dose): 2.9% | Mean Percent Administered Dose, GI Stomach Wall (healthy adults; 4.5 hr post-dose): 0.6% | Mean Percent Administered Dose, Heart Wall (healthy adults; 4.5 hr post-dose): 2.1% | Mean Percent Administered Dose, Kidneys (healthy adults; 4.5 hr post-dose): 1.1% | Mean Percent Administered Dose, Liver (healthy adults; 4.5 hr post-dose): 4.7% | Mean Percent Administered Dose, Salivary (healthy adults; 4.5 hr post-dose): 0.4% | Mean Percent Administered Dose, Thyroid (healthy adults; 4.5 hr post-dose): 0.1% | Mean Percent Administered Dose, Urinary Bladder (healthy adults; 4.5 hr post-dose): 1.7% | Mean Percent Administered Dose, Whole Body (healthy adults; 4.5 hr post-dose): 96.9% | mean peak uptake, brain (healthy adults; N = 12): approximately 8.3 % of the injected activity | mean peak uptake, kidneys (healthy adults; N = 12): approximately 9.4 % of the injected activity | mean peak uptake, liver (healthy adults; N = 12): approximately 19.1 % of the injected activity | Residence Time, Mean, Brain (healthy adults; [1]): 0.14 h and 0.138 h | Residence Time, Mean, GI Stomach Wall (healthy adults; [1]): 0.033 h | Residence Time, Mean, Heart Wall (healthy adults; [1]): 0.0728 h | Residence Time, Mean, Kidneys (healthy adults; [1]): 0.0952 h | Residence Time, Mean, Liver (healthy adults; [1]): 0.28 h and 0.277 h | Residence Time, Mean, Red Marrow (healthy adults; [1]): 0.0886 h | Residence Time, Mean, Remainder of Body (healthy adults; [1]): 1.8 h and 1.84 h | Residence Time, Mean, Salivary (healthy adults; [1]): 0.0148 h | Residence Time, Mean, Spleen (healthy adults; [1]): 0.0101 h | Residence Time, Mean, Thyroid (healthy adults; [1]): 0.00331 h | Residence Time, Mean, Urinary Bladder (healthy adults; [1]): 0.0265 h | high and sustained heart retention of ^18F, through time after injection (healthy adults; [2]): approximately 5 hours | time of liver clearing after injection (healthy adults; [2]): approximately 2 hours
